# Measurements: ChEMBL document CHEMBL2177047, “Design, synthesis, and pharmacological evaluation of bis-2-(5-phenylacetamido-1,2,4-thiadiazol-2-yl)ethyl sulfide 3 (BPTES) analogs as glutaminase inhibitors” (J Med Chem, 2012)
# Calls of active or inactive are those of the source. The rule behind the calls is not given here.
# Tested on: Liver
# Experiment: Metabolic stability in mouse liver microsomes at 5 uM up to 1 hr by LC/MS/MS analysis
# Assay type: ADME, Microsome
# Conditions: not given
row,Structure (SMILES),Stability
1,Nc1nnc(CCCCc2nnc(NC(=O)Cc3ccccc3)s2)s1,Stable
2,O=C(CCCCc1nnc(NC(=O)Cc2ccccc2)s1)NCCN1CCCC1,Stable

# Tested on: P493
# Experiment: Antitumor activity against human P493 cells xenografted in SCID mouse assessed as reduction in tumor growth at 12.5 mg/kg, ip administered every other day from day 10 measured on days 10 to 19 relative to vehicle-treated control
# Assay type: functional, organism-based
# Parameters: dose 12.5 mg/kg
# Conditions: not given
row,Structure (SMILES),TGI
1,Nc1nnc(CCSCCc2nnc(NC(=O)Cc3ccccc3)s2)s1,Active

# Tested on: not listed separately
# Experiment: physchem
# Conditions: PBS buffer, pH 7.4
# Description: Aqueous solubility of the compound in PBS buffer at pH 7.4 after 72 hrs by conventional shake flask method
row,Structure (SMILES),solubility thermodynamic at 72 h
1,Nc1nnc(CCCCc2nnc(NC(=O)Cc3ccccc3)s2)s1,3.4 µg/mL
2,O=C(CCCCc1nnc(NC(=O)Cc2ccccc2)s1)NCCN1CCCC1,683 µg/mL

# Tested on: P493
# Experiment: (§1) Cytotoxicity against human P493 cells assessed as growth inhibition by trypan blue dye exclusion assay
# Assay type: functional, cell-based
# Conditions: not given
row,Structure (SMILES),growth inhibition (GI)
1,Nc1nnc(CCSCCc2nnc(NC(=O)Cc3ccccc3)s2)s1,Dose-dependent effect

# Tested on: not listed separately
# Experiment: as §1
# Assay type: functional, cell-based
# Conditions: P493-6
row,Structure (SMILES),IC50
1,O=C(CCCCc1nnc(NC(=O)Cc2ccccc2)s1)NCCN1CCCC1,40 µM

# Target: T1, Glutaminase liver isoform, mitochondrial (Mus musculus) (UniProt Q571F8)
# T1 sequence (whole entry): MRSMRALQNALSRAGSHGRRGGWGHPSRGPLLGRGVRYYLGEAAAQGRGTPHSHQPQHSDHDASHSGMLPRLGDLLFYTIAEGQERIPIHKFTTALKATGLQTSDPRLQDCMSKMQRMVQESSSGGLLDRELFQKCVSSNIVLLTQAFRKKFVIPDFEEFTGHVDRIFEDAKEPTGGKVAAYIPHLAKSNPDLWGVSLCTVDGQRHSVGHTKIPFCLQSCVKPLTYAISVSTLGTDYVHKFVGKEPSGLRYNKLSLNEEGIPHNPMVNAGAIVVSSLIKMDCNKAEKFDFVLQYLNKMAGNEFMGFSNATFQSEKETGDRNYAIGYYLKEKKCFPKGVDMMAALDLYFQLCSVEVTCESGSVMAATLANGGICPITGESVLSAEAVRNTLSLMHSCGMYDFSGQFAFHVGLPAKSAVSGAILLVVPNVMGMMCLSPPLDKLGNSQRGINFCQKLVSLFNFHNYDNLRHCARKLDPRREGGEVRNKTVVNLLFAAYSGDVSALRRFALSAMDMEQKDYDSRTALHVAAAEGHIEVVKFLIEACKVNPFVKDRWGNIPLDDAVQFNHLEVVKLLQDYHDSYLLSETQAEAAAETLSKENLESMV
# Experiment: Inhibition of mouse liver GLS2 up to 100 uM
# Conditions: not given
row,Structure (SMILES),inhibition
1,Nc1nnc(CCSCCc2nnc(NC(=O)Cc3ccccc3)s2)s1,inactive

# Target: T2, Glutaminase kidney isoform, mitochondrial (Homo sapiens, UniProt O94925)
# T2 sequence (O94925 whole entry): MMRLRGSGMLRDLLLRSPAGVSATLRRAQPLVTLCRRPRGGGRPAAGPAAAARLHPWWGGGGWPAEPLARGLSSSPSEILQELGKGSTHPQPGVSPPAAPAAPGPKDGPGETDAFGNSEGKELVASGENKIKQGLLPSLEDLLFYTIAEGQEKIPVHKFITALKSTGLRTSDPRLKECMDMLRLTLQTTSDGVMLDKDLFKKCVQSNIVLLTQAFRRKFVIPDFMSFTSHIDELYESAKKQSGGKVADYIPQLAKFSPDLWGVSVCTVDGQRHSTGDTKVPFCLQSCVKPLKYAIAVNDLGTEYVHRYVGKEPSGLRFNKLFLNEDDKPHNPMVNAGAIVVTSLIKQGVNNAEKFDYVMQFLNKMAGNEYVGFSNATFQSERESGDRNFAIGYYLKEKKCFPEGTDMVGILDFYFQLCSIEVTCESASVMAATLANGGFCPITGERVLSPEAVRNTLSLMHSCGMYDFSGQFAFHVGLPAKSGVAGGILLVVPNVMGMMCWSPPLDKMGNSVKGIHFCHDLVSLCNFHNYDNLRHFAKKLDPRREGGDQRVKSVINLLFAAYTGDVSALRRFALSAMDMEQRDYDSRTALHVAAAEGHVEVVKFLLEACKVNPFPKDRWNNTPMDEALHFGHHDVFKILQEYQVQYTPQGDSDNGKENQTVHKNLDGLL
# Experiment: Inhibition of human kidney glutaminase (124 to 669) using L-[3H]-glutamine as substrate after 45 mins by GLS assay
# Conditions: not given
row,Structure (SMILES),IC50
1,CN1CCCC1CCNC(=O)CCCCc1nnc(NC(=O)Cc2ccccc2)s1 (stereo not given),8.1 µM
2,CN(CCN1CCCC1)C(=O)CCCCc1nnc(NC(=O)Cc2ccccc2)s1,> 100 µM
3,NCCNC(=O)CCCCc1nnc(NC(=O)Cc2ccccc2)s1,> 100 µM
4,CC(C(=O)Nc1nnc(CCCCc2nnc(N)s2)s1)c1ccccc1 (stereo not given),12 µM
5,O=C(CCCCc1nnc(NC(=O)Cc2ccccc2)s1)NCc1ccc(C(F)(F)F)cc1,> 100 µM
6,Nc1nnc(CCCCc2cnc(NC(=O)Cc3ccccc3)s2)s1,> 100 µM
7,Nc1nnc(CCCCc2nnc(NC(=O)CC3CCCCC3)s2)s1,22 µM
8,CN(C(=O)CCCCc1nnc(NC(=O)Cc2ccccc2)s1)C(C)(C)C,5.2 µM
9,Nc1nnc(CC[S+]([O-])CCc2nnc(NC(=O)Cc3ccccc3)s2)s1 (stereo not given),61 µM
10,Nc1nnc(CCCCc2nnc(NC(=O)c3ccccc3)s2)s1,7.2 µM
11,O=C(CCCCc1nnc(NC(=O)Cc2ccccc2)s1)NCc1ccccc1,> 100 µM
12,CN(C)c1ccc(CNC(=O)CCCCc2nnc(NC(=O)Cc3ccccc3)s2)cc1,48 µM
13,Nc1nnc(CCCCc2csc(NC(=O)Cc3ccccc3)n2)s1,> 100 µM
14,Cc1ccc(CC(=O)Nc2nnc(CCCCc3nnc(N)s3)s2)cc1,4.5 µM
15,CCN(CC)CCNC(=O)CCCCc1nnc(NC(=O)Cc2ccccc2)s1,26 µM
16,O=C(CCCCc1nnc(NC(=O)Cc2ccccc2)s1)NCCN1CCCCC1,10 µM
17,Nc1nnc(CCCc2nnc(NC(=O)Cc3ccccc3)s2)s1,15 µM
18,Nc1nnc(CCCCc2nnc(NC(=O)Cc3ccc(F)cc3)s2)s1,2.6 µM
19,O=C(CCCCc1nnc(NC(=O)Cc2ccccc2)s1)NCCN1CCC(c2ccccc2)CC1,1.4 µM
20,Nc1nnc(CCCCc2nnc(NC(=O)CCc3ccccc3)s2)s1,> 100 µM
21,O=C(CCCCc1nnc(NC(=O)Cc2ccccc2)s1)NCCN1CCC(O)CC1,3.8 µM
22,CC(C)(C)NC(=O)CCCCc1nnc(NC(=O)Cc2ccccc2)s1,11 µM
